Test results: US5484911A, “Nucleoside 5'-diphosphate conjugates of ether lipids” (Health Research, Inc., priority 1993, dated 1996)
Read-outs that look alike come from different tables or passages of the source.

What was measured:
HIV-1 = test: microbe, parasite or virus in culture; assay type: cell-based
Excerpt: (§1) FIG. 3. Anti-HIV activity of AZTDP-DL-PTBA from the National Cancer Institute Developmental Therapeutics Program In-Vitro Testing Results; NSC 648540-S/1; Plate 5440; Lab 9N; SSPL:129N; Primary Screen Assay; Test Date, Jan. 21, 1992; Solubility Ind.: 1; Report Date, Apr. 27, 1992; Cell Line, CEM-IW; Solvent: Saline<0.9% (MEDIA).
as §1, with “4.” for “3.”, “AZddUDP-DL-PTBA” for “AZTDP-DL-PTBA”, “NSC: 648541-T/1;” for “NSC 648540-S/1;”, “5466;” for “5440;”, “SSPL: 129N;” for “SSPL:129N;”, “Line:” for “Line,”
(§2) FIG. 5. Anti-HIV activity of ddCDP-DL-PTBA from the National Cancer Institute Developmental Therapeutic Program In-Vitro Testing Results; NSC: D- 652872-A/1; Plate 24; Lab 9N; Primary Screen Assay; Test Date, Jul. 23, 1992; Solubility Ind.: 1; Report Date: Aug. 7, 1992; Cell Line: CEM-IW; Solvent: Saline<0.9% (MEDIA).
(§3) FIG. 6. Anti-HIV activity of AZTDP-DL-PMA from the National Cancer Institute Developmental Therapeutics Program In-Vitro Testing Results; NSC: D- 652873-C/1; Plate 24; Lab 9N; SSPL: 129N; Primary Screen Assay; Test Date, Jul. 23, 1992; Solubility Ind.: 1; Report Date, Sep. 11, 1992; Cell Line: CEM-IW; Solvent: Saline<0.9% (MEDIA).
Anti-HIV evaluation for the compounds was performed at the National Cancer Institute, National Institute of Health and is presented in FIGS. 3-6.
(§4) The procedure is designed to detect agents acting at any stage of the virus reproductive cycle (Weislow, et al., J. Natl. Cancer Inst. 81, 577, 1989). The assay basically involves the killing of T4 lymphocytes by HIV. Small amounts of HIV are added to cells, and a complete cycle of virus reproduction is necessary to obtain the required cell killing. Agents that interact with virions, cells, or virus gene-products to interfere with viral activities will protect cells from cytolysis. Compounds that degenerate or are rapidly metabolized in the culture conditions may not show activity in this screen. All tests are compared with at least one positive (e.g., AZT-treated) control done at the same time under identical conditions.
(§5) Compound was dissolved in DMSO then diluted 1:100 in cell culture medium before preparing serial half-log10 dilutions. T4 lymphocytes (CEM cell line) were added and after a brief interval HIV-1 was added, resulting in a 1:200 final dilution of the compound. Uninfected cells with the compound served as a toxicity control, and infected and uninfected without the compound served as basic controls. Cultures were incubated at 37° C. in a 5% CO2 atmosphere for 6 days. The tetrazolium salt, XTT, was added to the wells, and cultures were incubated to allow formazan color development by viable cells. Individual wells were analyzed spectrophotometrically to quantitate formazan production, and in addition were viewed microscopically for detection of viable cells and confirmation of protective activity. Drug-treated virus-infected cells were compared with drug-treated noninfected cells and with other appropriate controls (untreated infected and untreated noninfected cells, drug-containing wells without cells, etc.) on the same plate. Data were reviewed in comparison with other tests done at the same time and a determination about activity was made.

in vivo = test: in vivo; design: species or system Female NIH-Swiss mice; conditions: mouse, ip, 394 mg/kg
Description: FIG. 7. Mouse serum concentration of AZT following administration of AZT or AZTDP-DL-PTBA Female NIH-Swiss mice weighing 25-30 g were administered i.p. with AZT (100 mg/kg) or AZTDP-DL-PTBA (394 mg/kg, equivalent to 100 mg/kg AZT). Three mice were sacrificed at the designated time (up to 24 hr) and AZT in the serum was analyzed by a HPLC method.
Female NIH-Swiss mice weighing 25-30 g were administered intraperitoneally (i.p.) with 394 mg/kg of AZTDP-DL-PTBA (equivalent to 100 mg/kg AZT). Three mice were sacrificed at the designated time (up to 24 hours) and AZT in the serum was analyzed by an HPLC method. […] The intact conjugate level in the serum was unable to be checked by the HPLC method.

[1] = Cytotoxicity to uninfected CEM cells (toxicity control of the anti-HIV assay); assay type: cell-based; conditions: human
Excerpt: as §1
as §1, with “4.” for “3.”, “AZddUDP-DL-PTBA” for “AZTDP-DL-PTBA”, “NSC: 648541-T/1;” for “NSC 648540-S/1;”, “5466;” for “5440;”, “SSPL: 129N;” for “SSPL:129N;”, “Line:” for “Line,”
as §2, §3, §4, §5

Solubility in water = assay type: physicochemical
Description: Solubility of AZTDP-DL-PTBA in water is only 0.58 mM. Thus, the compounds in the present invention were formulated in a micellar solution by sonication for the biological testings such as anti-HIV screenings. The compound was suspended in sterile water and then sonicated using a Branson Sonifier Cell Disruptor 200 at control 2-3 for 5 min (temp 20°-60° C.). The solution was sterile-filtered through a 0.22 μm membrane filter into a sterile receiving container under a laminar flow cabinet. The compound was existed as micelles and the micellar solution was stored in a refrigerator.

L1210 lymphoid leukemia = test: In vivo test against i.p. implanted L1210 lymphoid leukemia in DBA/2J mice
Description: AZTDP-DL-PTBA was also tested for in vivo cytotoxicity against i.p. implanted L1210 lymphoid leukemia (10^6 cells) in DBA/2J mice.

CCCCCCCCCCCCCCCCCCSCC(COP(=O)(O)OP(=O)(O)OC[C@H]1O[C@@H](n2cc(C)c(=O)[nH]c2=O)C[C@@H]1N=[N+]=[N-])OC(=O)CCCCCCCCCCCCCCC (mixture of isomers) [AZTDP-DL-PTBA]
concentration at which protection was lost (HIV-1; HIV-infected CEM cells): 180 µM | viability at 0.58 µM (HIV-1; Human immunodeficiency virus 1, CCRF-CEM, at as low as 5.80×10^-7 M, read-out: protected HIV-infected CEM cells): 80% | viability at 180 µM (HIV-1; Human immunodeficiency virus 1, CCRF-CEM, dose 1.80 × 10^-4 Molar (Tables 1, 2), read-out: INFECTED RESPONSE Percent of Control): 1.53% | viability at 18 µM (HIV-1; Human immunodeficiency virus 1, CCRF-CEM, dose 1.80 × 10^-5 Molar (Tables 1, 2), read-out: INFECTED RESPONSE Percent of Control): 110% | viability at 1.8 µM (HIV-1; Human immunodeficiency virus 1, CCRF-CEM, dose 1.80 × 10^-6 Molar (Tables 1, 2), read-out: INFECTED RESPONSE Percent of Control): 95.6% | viability at 580 µM (HIV-1; Human immunodeficiency virus 1, CCRF-CEM, dose 5.80 × 10^-4 Molar (Tables 1, 2), read-out: INFECTED RESPONSE Percent of Control): 0.57% | viability at 58 µM (HIV-1; Human immunodeficiency virus 1, CCRF-CEM, dose 5.80 × 10^-5 Molar (Tables 1, 2), read-out: INFECTED RESPONSE Percent of Control): 122% | viability at 5.8 µM (HIV-1; Human immunodeficiency virus 1, CCRF-CEM, dose 5.80 × 10^-6 Molar (Tables 1, 2), read-out: INFECTED RESPONSE Percent of Control): 98.1% | viability at 0.58 µM (HIV-1; Human immunodeficiency virus 1, CCRF-CEM, dose 5.80 × 10^-7 Molar (Tables 1, 2), read-out: INFECTED RESPONSE Percent of Control): 81.6% | Conclusion (HIV-1; NCI screen conclusion, Tables 1-4): CONFIRMED ACTIVE | conclusion / reported as anti-HIV drug (HIV-1; NCI screening results): active | in vitro anti-HIV activity (HIV-1; result in words): strong in vitro anti-HIV activity | half-life (in vivo): 7.85 h | MCC ([1]; cem cells, read-out: concentration at which the compound started to show the cytotoxicity): 100 µM | viability at 180 µM ([1]; uninfected cem cells, dose 1.80 × 10^-4 Molar (Tables 1, 2), read-out: UNINFECTED RESPONSE Percent of Control): 0.9% | viability at 18 µM ([1]; uninfected cem cells, dose 1.80 × 10^-5 Molar (Tables 1, 2), read-out: UNINFECTED RESPONSE Percent of Control): 106% | viability at 1.8 µM ([1]; uninfected cem cells, dose 1.80 × 10^-6 Molar (Tables 1, 2), read-out: UNINFECTED RESPONSE Percent of Control): 98.7% | viability at 580 µM ([1]; uninfected cem cells, dose 5.80 × 10^-4 Molar (Tables 1, 2), read-out: UNINFECTED RESPONSE Percent of Control): -0.54% | viability at 58 µM ([1]; uninfected cem cells, dose 5.80 × 10^-5 Molar (Tables 1, 2), read-out: UNINFECTED RESPONSE Percent of Control): 113% | viability at 5.8 µM ([1]; uninfected cem cells, dose 5.80 × 10^-6 Molar (Tables 1, 2), read-out: UNINFECTED RESPONSE Percent of Control): 95.9% | viability at 0.58 µM ([1]; uninfected cem cells, dose 5.80 × 10^-7 Molar (Tables 1, 2), read-out: UNINFECTED RESPONSE Percent of Control): 97% | CC50 ([1]; CEM cells, read-out: cytotoxicity (IC50)): 110 µM | CC50 at 144 h ([1]; uninfected CEM-IW cells, 6 days, XTT, Tables 1-4, read-out: 1C50(Molar) (cytotoxicity)): 110 µM | solubility (Solubility in water): 580 µM | % ILS (increase in life span) (L1210 lymphoid leukemia; 100-300 mg (95-285 μmole)/kg, L1210 10^6 cells i.p.): 0% | Toxicity (L1210 lymphoid leukemia; 100-300 mg/kg, leukemic mice): Toxicity as reflected in weight loss was observed
